Values quoted from earlier work as cited in patent US20250312313A1, “PHARMACEUTICAL COMPOSITION FOR SUBLINGUAL ADMINISTRATION OF CLONIDINE” (NOVUMGEN LIMITED, priority 2022, published 2025).

Conditions: oral

In the case of Clc1cccc(Cl)c1N=C1NCCN1 [Clonidine], the “absorption from the gastrointestinal tract” value is given as “almost completely absorbed”.
